Among the data in the NIST ThermoML archive (doi:10.1016/j.tca.2005.04.030) are mass density, speed of sound and refractive index values, retold here.

Structures are written as SMILES. ± gives the expanded uncertainty stated by the source.

The conditions of data set [1]: 101.33 kPa, Liquid; for mass density: 298.1 K, Vibrating tube method; for speed of sound: 298.15 K, Anton Paar DSA 48.
Data set [2] can be described thus: refractive index (Na D-line) (dimensionless). To be noted: 298.1 K, 101.33 kPa, Liquid.

Consider `CCCCOC(C)(C)C` [butane, 1-(1,1-dimethylethoxy)-], for which, in data set [1], the mass density worked out at 757.57 ± 0.17 kg/m3 and the speed of sound is on record as 1113 ± 2 m/s. The refractive index in data set [2] (Anton Paar DSA 48) amounted to 1.3917 ± 5e-05.
Take `CCO` [ethanol]: in data set [1], the mass density is recorded as 785.22 ± 0.25 kg/m3 and the speed of sound is on record as 1143 ± 2 m/s. For the same molecule, in data set [2] (ATAGO RX-1000), the refractive index amounted to 1.3592 ± 0.00011.
The corresponding values for `CO` [methanol] are 786.63 ± 0.25 kg/m3, 1101 ± 2 m/s and 1.3264 ± 0.0002.
As to `O` [water], the refractive index in data set [2] (ATAGO RX-1000) amounted to 1.3325 ± 8e-05.
